Results on six compounds are retold here after patent publication US10865334B2, “Process for extracting materials from biological material” (Universiteit Leiden, priority 2010, dated 2020).

Each structure is given as a SMILES string. Converted amounts (≈) assume the structure as drawn. A value given as a limit tells only on which side of the number the result lay.

A short description of data set [1]: solubility data in some typical Des at 40° C. It counts as physicochemical. As to conditions: for solubility in GCH / solubility in H2O / solubility in LGH / solubility in PdCH / solubility in SoCH: n = 3.
Data set [2] is described as follows: solubility of flavonoids in naturally occurring deep eutectic solvents. It counts as physicochemical. The procedure: First the solubility of natural products, which are not soluble in water, was evaluated in a few selected natural deep eutectic solvents. Several flavonoids were chosen as the natural water-insoluble products, because they are one of the most abundant water-insoluble plant secondary metabolites. Up to now more than 500 flavonoids have been known. Most of these flavonoids occur in their glycosides forms (bounded to a sugar molecule) in plants. In spite of large abundance of flavonoids in plants, both the glycoside and the aglycone (non-sugar) part are not soluble in water. […] The structure of these flavonoids are shown below.

The mark [3] stands for this setting: deep eutectic solvent GCH, organic solvent or mixture, solvent GCH (Glc:Ch:H2O 1:2.5:2.5), n = 3, read-out: solubility in GCH.
[4] abbreviates: deep eutectic solvent LGH, organic solvent or mixture, solvent LGH (Lac:Glc:H2O 5:1:2), n = 3, read-out: solubility in LGH.
Where [5] appears, read: deep eutectic solvent PdCH, organic solvent or mixture, solvent PdCH (1,2Prop:Ch:H20 1:1:1), n = 3, read-out: solubility in PdCH.
[6] abbreviates: deep eutectic solvent SoCH, organic solvent or mixture, solvent SoCH (So:Ch:H2O), n = 3, read-out: solubility in SoCH.
The mark [7] stands for this setting: organic solvent or mixture, Solubility in Fructose + Choline chloride.
The mark [8] stands for this setting: organic solvent or mixture, Solubility in Glucose + Choline chloride.
[9] abbreviates: solvent GCH (Glc:Ch:H2O 1:2.5:2.5).
[10] abbreviates: solvent LGH (Lac:Glc:H2O 5:1:2).
Where [11] appears, read: solvent PdCH (1,2Prop:Ch:H20 1:1:1).

For orientation: solubility means the concentration that dissolves in the medium under given conditions. Turning to `O=c1c(O)c(-c2ccc(O)c(O)c2)oc2cc(O)cc(O)c12` [quercetin], the solubility in data set [1] (setting [3]) turned out to be 20.1 ± 0.41 mg/mL (≈ 66.4 mM); in data set [1] (setting [4]), 1.72 ± 0.09 mg/mL (≈ 5.69 mM); in data set [1] (setting [5]) it was 205 ± 7.31 mg/mL (≈ 679 mM); in data set [1] (setting [6]) it was 146 ± 2.82 mg/mL (≈ 483 mM); in data set [2] (setting [7]), 23.3 ± 2.54 mg/mL; in data set [2] (setting [8]) it was 21.6 ± 0.94 mg/mL. In data set [2] (water, Solubility in Water), this compound had a solubility of 0.3 ± 0.002 mg/mL (≈ 0.993 mM). Moreover, the “Solubility in Sucrose + Choline chloride” value in data set [2] turned out to be 15.63 ± 0.57 mg/mL.

Regarding `CC1C(=O)OC2C(O)C34C5CC(C(C)(C)C)C36C(OC(=O)C6O)OC4(C(=O)O5)C12O` (centres unmarked) [ginkgolide B], in data set [1] (setting [9]), the “solubility in GCH” value worked out at 5.85 ± 0.42 mg/mL (≈ 13.8 mM). Besides, the “solubility in H2O” value in data set [1] (solvent H2O) is 0.15 ± 0.00 mg/mL (≈ 0.353 mM). The “solubility in LGH” value in data set [1] (setting [10]) was 1.93 ± 0.31 mg/mL (≈ 4.55 mM). In addition, the “solubility in PdCH” value in data set [1] (setting [11]) stood at 78.42 ± 14.45 mg/mL (≈ 185 mM). Further, the “solubility in SoCH” value in data set [1] (solvent SoCH (So:Ch:H2O)) is 1.70 ± 0.01 mg/mL (≈ 4.01 mM).

As to `O=C(/C=C/c1ccc(O)cc1)C1=C(O)[C@](O)([C@@H]2O[C@H](CO)[C@@H](O)[C@H](O)[C@H]2O)C(O)=C(/C=C2/C(=O)C(C(=O)/C=C/c3ccc(O)cc3)=C(O)[C@@](O)([C@@H]3O[C@H](CO)[C@@H](O)[C@H](O)[C@H]3O)C2=O)C1=O` [carthamin], the “solubility in GCH” value in data set [1] (setting [9]) worked out at 27.20 ± 0.39 mg/mL (≈ 29.9 mM). Besides, the “solubility in H2O” value in data set [1] (solvent H2O) is 1.43 ± 0.01 mg/mL (≈ 1.57 mM). Further, the “solubility in LGH” value in data set [1] (setting [10]) amounted to 1.24 ± 0.21 mg/mL (≈ 1.36 mM). In data set [1] (setting [11]), the “solubility in PdCH” value amounted to 22.47 ± 1.00 mg/mL (≈ 24.7 mM). Moreover, the “solubility in SoCH” value in data set [1] (solvent SoCH (So:Ch:H2O)) was 14.05 ± 0.66 mg/mL (≈ 15.4 mM).

For the compound `CC(=O)O[C@H]1C(=O)[C@@]2(C)[C@H]([C@H](OC(=O)c3ccccc3)[C@]3(O)C[C@H](OC(=O)[C@H](O)[C@@H](NC(=O)c4ccccc4)c4ccccc4)C(C)=C1C3(C)C)[C@]1(OC(C)=O)CO[C@@H]1C[C@@H]2O` [paclitaxel], the solubility came to 5.39 ± 0.55 mg/mL (≈ 6.31 mM) in data set [1] (setting [4]), 11.7 ± 0.68 mg/mL (≈ 13.7 mM) in data set [1] (setting [5]) and 0.59 ± 0.01 mg/mL (≈ 0.691 mM) in data set [1] (setting [6]). In addition, the “solubility in GCH” value in data set [1] (setting [9]) was 0.83 ± 0.16 mg/mL (≈ 0.972 mM).

As to `C[C@@H]1O[C@@H](OC[C@H]2O[C@@H](Oc3c(-c4ccc(O)c(O)c4)oc4cc(O)cc(O)c4c3=O)[C@H](O)[C@@H](O)[C@@H]2O)[C@H](O)[C@H](O)[C@H]1O` [rutin, quercetin-3-O-rhanmoglucoside], the solubility was 122 ± 1.45 mg/mL (≈ 199 mM) in data set [1] (setting [3]); 8.14 ± 0.79 mg/mL (≈ 13.3 mM) in data set [1] (setting [4]); 353 ± 31.2 mg/mL (≈ 578 mM) in data set [1] (setting [5]); 149 ± 2.61 mg/mL (≈ 244 mM) in data set [1] (setting [6]); 0.028 mg/mL (≈ 0.0459 mM) in data set [1] (water, solvent H2O, n = 3, read-out: solubility in H2O); 10.9 ± 1.7 mg/mL in data set [2] (setting [7]). Further, the solubility in data set [2] (setting [8]) was 4.78 ± 0.84 mg/mL; in data set [2] (organic solvent or mixture, Solubility in Sucrose + Choline chloride) it was 2.41 ± 0.18 mg/mL; in data set [2] (water, Solubility in Water) it was less than 0.001 mg/mL.

For the compound `C[C@@H]1O[C@@H](Oc2c(-c3ccc(O)c(O)c3)oc3cc(O)cc(O)c3c2=O)[C@H](O)[C@H](O)[C@H]1O` [Quercitrin, quercetin-3-O-rhamnoside], the solubility in data set [2] (organic solvent or mixture, deep eutectic solvent Fructose + Choline chloride, read-out: Solubility in Fructose + Choline chloride) was determined as 11.2 ± 0.64 mg/mL; in data set [2] (organic solvent or mixture, deep eutectic solvent Glucose + Choline chloride, read-out: Solubility in Glucose + Choline chloride), 7.81 ± 0.2 mg/mL; in data set [2] (organic solvent or mixture, deep eutectic solvent Sucrose + Choline chloride, read-out: Solubility in Sucrose + Choline chloride), 12.7 ± 0.38 mg/mL; in data set [2] (water, read-out: Solubility in Water) it was 0.159 ± 0.001 mg/mL (≈ 0.355 mM).
